These results are taken from US11446298B2, “Pyrimidine derivatives” (Idorsia Pharmaceuticals Ltd, priority 2017, dated 2022).

What all share (format): cell-based
Experiment [1] has as its target T1, EP4 (Homo sapiens, UniProt P35408).
T1 construct: BT549 breast cancer cells, express high endogenous EP4 levels and very low EP2 levels; host or cells: BT549 breast cancer cells
Description: hEP4 cAMP Assay (BT549 breast cancer cells, HTRF cAMP, PGE2 6 nM). To be noted: antagonistic activity, PGE2 6 nM (EC80). How it is done:
(§1) The antagonistic activities of the compounds of formula (I) on the EP2 and EP4 receptors are also determined in accordance with the following experimental method.
(§2) Human tumor cell lines expressing endogenously either EP4 or EP2 are used and cAMP accumulation in cells upon PGE2 stimulation is monitored. SF295 glioblastoma cells express high endogenous EP2 and no EP4, whereas BT549 breast cancer cells, express high endogenous EP4 levels and very low EP2 levels.
(§3) As a detection method for cAMP the HTRF (homogeneous time resolved fluorescence) Cisbio kit (HTRF cAMP dynamic 2 kit 20′000 tests Cisbio Cat. #62AM4PEC) was used, which is based on a competitive immunoassay using a Cryptate-labeled anti-cAMP antibody and d2-labeled cAMP. Native cAMP produced by cells or unlabeled cAMP (for the standard curve) compete with exogenously added d2-labeled cAMP (acceptor) for binding to monoclonal anti-cAMP-Eu3+Cryptate (donor). A FRET signal (Fluorescence Resonance Energy Transfer) is obtained only if the labeled anti-cAMP antibody binds the d2 labelled cAMP, thus the specific signal (i.e. energy transfer) is inversely proportional to the concentration of cAMP in the standard or sample.
The BT549 cells (NCI/No. 0507282) are detached from culture dishes with a cell dissociation buffer (Invitrogen, 13151-014), and collected in growing medium (GM: RPMI1640 (Invitrogen 21875)/10% FCS, 1% Penicilin/streptomycin). Cells are counted washed and resuspended in assay buffer (AB; HBSS, 20 mM HEPES, 0.2% BSA; 2 mM IBMX). 4′000 cells in 5 μL of AB are seeded per well of a small volume 384 well plate (black with flat bottom, Greiner 784076).
(§4) Stock solutions of test compounds are made at a concentration of 10 mM in DMSO, and serially diluted in DMSO to concentrations required for inhibition dose response curves (tested concentration range 30 μM-0.4 nM; 30 μM-0.015 nM or 1 μM-0.01 nM).
PGE2 (Cayman 14010, stock solution: 6 uM in DMSO) is used as agonist at 6 nM final concentration, corresponding to EC80.
2.5 μL of diluted compounds are transferred into the assay plate. Plate is pre-incubated 45 minutes at room temperature. Subsequently, 2.5 μL of PGE2 (final conc. 6 nM) are transferred into the assay plate. Plate is incubated 30 minutes at room temperature. 5 μL of each donor (anti-cAMP cryptate) and acceptor (cAMP-d2) are added and the plate is incubated another hour at room temperature in the dark and then read using a BMG LABTECH PHERAstar reader (Excitation: 337 nm, Emission: 620 and 665 nm).
(§5) The obtained Delta F (fluorescence) values (665 nm/620 nM) are converted into % cAMP values using the measurements of the cAMP calibrator provided in the kit. For each compound concentration the percentage of cAMP compared to DMSO control value as average ±STDEV (each concentration is measured in duplicate) is calculated.
(§6) IC50 values and curves are generated with XLfit software (IDBS) using Dose-Response One Site model 203. When compounds were measured multiple times, mean values are given.
(Time-resolved FRET reads energy transfer from a long-lived donor to a nearby acceptor.)

For experiment [2], the target named is T2, PTGER2 (EP2) (Homo sapiens, UniProt P43116).
T2 construct: host or cells: HEK 293 (PathHunter, stably transfected)
Description: hEP2 b-Arrestin Assay (PathHunter HEK 293 PTGER2 b-arrestin cells, PGE2 5 μM). To be noted: antagonistic activity, beta-arrestin assay, HEK 293 PTGER2 cells, PGE2 5 μM (EC80); read-out: hEP2 b-arr IC50. As to the method:
as §1
The assay is using the PathHunter™ HEK 293 PTGER2 and PTGER4 b-arrestin cell lines from DiscoverX. The system is based on the Enzyme Fragment Complementation Technology. Two complementing fragments of the b-galactosidase enzyme are expressed within stably transfected cells. The larger portion of b-gal, termed EA for Enzyme Acceptor, is fused to the C-terminus of b-arrestin 2. The smaller fragment, termed ProLink™ tag, is fused to PTGER2 (EP2) or PTRGER4 (EP4) at the C-terminus. Upon activation, b-arrestin is recruited which forces the interaction of ProLink and EA, allowing complementation of the two fragments of b-gal and the formation of a functional enzyme which is capable of hydrolysing the substrate and generating a chemiluminescent signal.
The HEK 293 PTGER2 b-arrestin cells (DiscoverX 93-021-4C1) are detached from culture dishes with a cell dissociation buffer (Invitrogen, 13151-014), and collected in growing medium (GM: DMEM+Glutamax-I (Invitrogen 32430)/10% FCS, 1% Penicilin/streptomycin). 5000 cells per well of a 384 well plate (white with white bottom Greiner 781080) are seeded in 20 μl per well of GM. Plate is incubated at 37° C., 5% CO2 for 24 hours.
Stock solutions of test compounds are made at a concentration of 10 mM in DMSO, and serially diluted in DMSO to concentrations required for inhibition dose response curves (tested concentration range 10 μM-2 nM or 1 μM-0.2 nM).
PGE2 (Cayman 14010, stock solution: 10 mM in DMSO) is used as agonist at 5 μM final concentration, corresponding to EC80.
Five microliters of diluted compounds are transferred into the assay plate. Plate is pre-incubated 15 minutes at 37° C. Then five microliters of PGE2 (final conc. 5 μM) are transferred into the assay plate. Plate is incubated 120 minutes at 37° C.
PathHunter Glo Detection Kit components are thawed and mix according to manufacturer's instructions: 1 part Galacton Star Substrate with 5 parts Emerald II™ Solution, and 19 parts of PathHunter Cell Assay Buffer, respectively. Twelve μl of reagent are transferred to the assay plate and incubate for 1 hour at room temperature in the dark. Luminescence counts are read on a BMG Fluostar Optima reader according to manufacturer's instructions.
For each compound concentration calculate of the percentage of activity compared to DMSO control value as average ±STDEV. (each concentration is measured in duplicate)
as §6

In experiment [3] the target is T3, EP2 (Homo sapiens, UniProt P43116).
T3 construct: SF295 glioblastoma cells express high endogenous EP2 and no EP4; host or cells: SF295 glioblastoma cells
In words: hEP2 cAMP Assay (SF295 glioblastoma cells, HTRF cAMP, PGE2 75 nM). To be noted: antagonistic activity, PGE2 75 nM (EC80). How it is done: as §1, §2, §3
The SF295 cells (NCI/No. 0503170) are detached from culture dishes with a cell dissociation buffer (Invitrogen, 13151-014), and collected in growing medium (GM: RPM11640 (Invitrogen 21875)/10% FCS, 1% Penicilin/streptomycin). Cells are counted washed and resuspended in assay buffer (AB; HBSS, 20 mM HEPES, 0.2% BSA; 2 mM IBMX). 4′000 cells in 5 μL of AB are seeded per well of a small volume 384 well plate (black with flat bottom, Greiner 784076).
as §4
PGE2 (Cayman 14010, stock solution: 75 μM in DMSO) is used as agonist at 75 nM final concentration, corresponding to EC80.
2.5 μL of diluted compounds are transferred into the assay plate. Plate is pre-incubated 45 minutes at room temperature. Subsequently, 2.5 μL of PGE2 (final conc. 75 nM) are transferred into the assay plate. Plate is incubated 30 minutes at room temperature. Five μL of each donor (anti-cAMP cryptate) and acceptor (cAMP-d2) are added and the plate is incubated another hour at room temperature in the dark and then read using a BMG LABTECH PHERAstar reader (Excitation: 337 nm, Emission: 620 and 665 nm).
as §5, §6

By IC50 is commonly meant the point on the concentration scale where inhibition reaches its midpoint.

T1 sequence (P35408 whole entry): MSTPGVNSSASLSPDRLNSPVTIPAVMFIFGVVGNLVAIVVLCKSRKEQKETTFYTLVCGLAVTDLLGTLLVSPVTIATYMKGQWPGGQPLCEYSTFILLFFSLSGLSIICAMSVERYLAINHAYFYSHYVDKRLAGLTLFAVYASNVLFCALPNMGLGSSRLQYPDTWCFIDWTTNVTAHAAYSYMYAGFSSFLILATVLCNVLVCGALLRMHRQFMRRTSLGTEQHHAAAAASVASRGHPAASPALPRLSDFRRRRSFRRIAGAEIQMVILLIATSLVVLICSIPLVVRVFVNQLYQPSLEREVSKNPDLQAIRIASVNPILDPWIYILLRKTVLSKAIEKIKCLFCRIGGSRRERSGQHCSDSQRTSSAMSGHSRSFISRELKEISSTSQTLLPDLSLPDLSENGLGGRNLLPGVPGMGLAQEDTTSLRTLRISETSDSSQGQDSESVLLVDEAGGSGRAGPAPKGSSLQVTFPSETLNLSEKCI
T2 sequence (P43116 whole entry): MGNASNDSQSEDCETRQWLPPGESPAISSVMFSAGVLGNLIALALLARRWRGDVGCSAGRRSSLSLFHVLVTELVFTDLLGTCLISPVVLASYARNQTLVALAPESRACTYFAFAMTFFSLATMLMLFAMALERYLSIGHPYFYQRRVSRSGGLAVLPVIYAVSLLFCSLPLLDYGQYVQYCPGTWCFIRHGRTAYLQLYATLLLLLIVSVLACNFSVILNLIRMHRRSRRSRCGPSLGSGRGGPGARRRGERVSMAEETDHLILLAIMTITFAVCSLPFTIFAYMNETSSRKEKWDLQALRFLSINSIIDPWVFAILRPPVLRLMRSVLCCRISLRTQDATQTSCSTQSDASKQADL
T3 sequence (P43116 whole entry): as above

Regarding `CCOc1cc(-c2cc(NCCc3ccc(F)c4ccccc34)ncn2)ccc1C(=O)O` [Example 19, 2-Ethoxy-4-{6-[2-(4-fluoro-naphthalen-1-yl)-ethylamino]-pyrimidin-4-yl}-benzoic acid], the figures for the IC50 in experiment [1], in experiment [2] and in experiment [3] were 0.646 µM, 0.129 µM and 0.093 µM, respectively.
For the compound `COc1ccc2ncccc2c1CCNc1cc(-c2ccnc(N3CCCCC3)c2)ncn1` [Example 112, [2-(6-Methoxy-quinolin-5-yl)-ethyl]-[6-(3,4,5,6-tetrahydro-2H-[1,2′]bipyridinyl-4′-yl)-pyrimidin-4-yl]amine], the half-maximal inhibitory concentration (IC50) in experiment [1] amounted to 0.685 µM; in experiment [2], 0.19 µM; in experiment [3], 0.21 µM.
Turning to `CCOc1cc(-c2cc(NCCc3c(Br)ccc4ccccc34)ncn2)ccc1C(=O)O` [Example 7, 4-{6-[2-(2-Bromo-naphthalen-1-yl)-ethylamino]-pyrimidin-4-yl}-2-ethoxy-benzoic acid], the IC50 in experiment [1] worked out at 0.909 µM; in experiment [2], 0.022 µM; in experiment [3] it was 0.067 µM.
Taken in the same sequence, the figures for `Cc1ccc2c(cnn2C)c1CCNc1cc(-c2ccc3ncccc3c2)ncn1` [Example 114, [2-(1,5-Dimethyl-1H-indazol-4-yl)-ethyl]-(6-quinolin-6-yl-pyrimidin-4-yl)-amine] were 0.492 µM, 0.224 µM and 0.035 µM.
As to `CCOc1cc(-c2cc(NCCc3ccc(Cl)c4ccccc34)ncn2)ccc1OCC(=O)O` [Example 63, (4-{6-[2-(4-Chloro-naphthalen-1-yl)-ethylamino]-pyrimidin-4-yl}-2-ethoxy-phenoxy)-acetic acid], the IC50 in experiment [1] is 0.3 µM; in experiment [2], 0.099 µM; in experiment [3], 0.239 µM.
For `CCOc1cc(-c2cc(NCCc3cccc4cc(C)n(C)c34)ncn2)sc1C(=O)O` [Example 56, 5-{6-[2-(1,2-Dimethyl-1H-indol-7-yl)-ethylamino]-pyrimidin-4-yl}-3-ethoxy-thiophene-2-carboxylic acid], in that order: 0.292 µM, 0.053 µM and 0.052 µM.
For `COc1ccc2ncccc2c1CCNc1cc(-c2ccc(-c3c(O)c(=O)c3=O)cc2)ncn1` [Example 91, 3-Hydroxy-4-(4-{6-[2-(6-methoxy-quinolin-5-yl)-ethylamino]-pyrimidin-4-yl}-phenyl)-cyclobut-3-ene-1,2-dione], in that order: 0.818 µM, 0.146 µM and 0.228 µM.
For the compound `COc1cc(-c2cc(NCCc3c(OC)ccc4ncccc34)ncn2)sc1C1(O)COC1` [Example 89, 3-(3-Methoxy-5-{6-[2-(6-methoxy-quinolin-5-yl)-ethylamino]-pyrimidin-4-yl}-thiophen-2-yl)-oxetan-3-ol], the IC50 was 0.878 µM in experiment [1], 0.178 µM in experiment [2] and 0.197 µM in experiment [3].
Consider `CCOc1cc(-c2cc(NCCc3c(F)ccc4ccccc34)ncn2)ccc1OCC(=O)O` [Example 96, (2-Ethoxy-4-{6-[2-(2-fluoro-naphthalen-1-yl)-ethylamino]-pyrimidin-4-yl}-phenoxy)-acetic acid], for which the values for the IC50 in experiment [1], in experiment [2] and in experiment [3] were 0.426 µM, 0.066 µM and 0.18 µM, respectively.
For `COc1ccc2ccccc2c1CCNc1cc(-c2ccc(C(=O)O)c(CC(C)C)c2)ncn1` [Example 122, 2-Isobutyl-4-{6-[2-(2-methoxy-naphthalen-1-yl)-ethylamino]-pyrimidin-4-yl}-benzoic acid], in that order: 0.308 µM, 0.062 µM and 0.041 µM.
`CCOc1cc(-c2cc(NCCc3c(OC)ccc4ccccc34)ncn2)ccc1OCC(=O)O` [Example 47, (2-Ethoxy-4-{6-[2-(2-methoxy-naphthalen-1-yl)-ethylamino]-pyrimidin-4-yl}-phenoxy)-acetic acid]: the concentration for half-maximal inhibition (IC50) is 0.654 µM in experiment [1], 0.045 µM in experiment [2] and 0.123 µM in experiment [3].
For `CCOc1cc(-c2cc(NCCc3cccc4ccsc34)ncn2)ccc1C(=O)O` [Example 101, 4-[6-(2-Benzo[b]thiophen-7-yl-ethylamino)-pyrimidin-4-yl]-2-ethoxy-benzoic acid], in that order: 0.619 µM, 0.128 µM and 0.129 µM.
Taken in the same sequence, the figures for `O=C(O)c1ccc(-c2cc(NCCc3c(F)ccc4ccccc34)ncn2)cc1OC1CCC1` [Example 94, 2-Cyclobutoxy-4-{6-[2-(2-fluoro-naphthalen-1-yl)-ethylamino]-pyrimidin-4-yl}-benzoic acid] were 0.368 µM, 0.034 µM and 0.053 µM.
On to `Cc1ccc(CCNc2cc(-c3ccc(C(=O)O)c(OC4CCC4)c3)ncn2)c2ccccc12` [Example 17, 2-Cyclobutoxy-4-{6-[2-(4-methyl-naphthalen-1-yl)-ethylamino]-pyrimidin-4-yl}-benzoic acid], for which the IC50 in experiment [1] is 0.27 µM; in experiment [2], 0.095 µM; in experiment [3], 0.281 µM.
